15 compounds from ChEMBL document CHEMBL1132874, “Synthesis and structure-activity relationship of novel pyridyl ethers for the nicotinic acetylcholine receptor” (Bioorg Med Chem Lett, 2000) can be followed below.

SMILES strings stand for the structures.

The test deals with Neuronal acetylcholine receptor; alpha4/beta2 (Rattus norvegicus, UniProt P09483+P12390). Nature of the test: Evaluated for binding affinity towards nicotinic acetylcholine receptor alpha4-beta2. Format: protein-complex assay.
Neuronal acetylcholine receptor; alpha4/beta2, sequence (P09483 whole entry): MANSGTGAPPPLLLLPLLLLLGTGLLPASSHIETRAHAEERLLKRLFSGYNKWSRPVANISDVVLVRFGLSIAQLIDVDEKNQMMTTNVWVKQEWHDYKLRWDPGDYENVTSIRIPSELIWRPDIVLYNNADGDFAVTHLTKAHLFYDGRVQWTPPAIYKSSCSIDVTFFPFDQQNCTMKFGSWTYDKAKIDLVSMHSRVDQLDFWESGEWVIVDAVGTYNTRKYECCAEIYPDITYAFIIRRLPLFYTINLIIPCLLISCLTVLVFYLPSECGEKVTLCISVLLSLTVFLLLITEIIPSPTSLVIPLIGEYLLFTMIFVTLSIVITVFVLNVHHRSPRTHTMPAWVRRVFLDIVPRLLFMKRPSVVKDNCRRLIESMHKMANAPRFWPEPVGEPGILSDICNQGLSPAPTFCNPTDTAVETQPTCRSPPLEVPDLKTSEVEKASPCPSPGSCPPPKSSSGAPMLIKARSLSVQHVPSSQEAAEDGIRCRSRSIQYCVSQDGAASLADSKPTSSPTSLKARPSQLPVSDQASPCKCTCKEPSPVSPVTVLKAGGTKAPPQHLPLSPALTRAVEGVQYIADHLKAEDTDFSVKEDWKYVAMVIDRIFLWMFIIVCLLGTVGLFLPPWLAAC
Neuronal acetylcholine receptor; alpha4/beta2, sequence (P12390 whole entry): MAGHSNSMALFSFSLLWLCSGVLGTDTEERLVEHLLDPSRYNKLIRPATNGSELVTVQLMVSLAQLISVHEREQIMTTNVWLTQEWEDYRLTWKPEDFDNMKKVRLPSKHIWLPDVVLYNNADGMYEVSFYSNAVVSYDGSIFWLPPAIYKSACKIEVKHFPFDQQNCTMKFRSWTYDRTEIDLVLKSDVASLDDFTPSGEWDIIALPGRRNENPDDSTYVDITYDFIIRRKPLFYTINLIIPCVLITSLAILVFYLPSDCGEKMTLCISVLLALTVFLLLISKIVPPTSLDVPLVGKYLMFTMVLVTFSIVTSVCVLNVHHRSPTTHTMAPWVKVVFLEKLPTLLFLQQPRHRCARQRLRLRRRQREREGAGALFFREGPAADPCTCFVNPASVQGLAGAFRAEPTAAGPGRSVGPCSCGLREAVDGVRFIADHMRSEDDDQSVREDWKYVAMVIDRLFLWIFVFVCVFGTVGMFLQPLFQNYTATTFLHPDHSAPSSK
Compound `C#Cc1cncc(O[C@@H]2CCNC2)c1` had an IC50 of 62 nM.
`Clc1cccc(-c2cncc(O[C@@H]3CCNC3)c2)c1`: the IC50 turned out to be 940 nM.
The same measure for `Clc1cccc(-c2cc(O[C@@H]3CCNC3)cnc2Cl)c1`: 103 nM; for `C=Cc1cc(O[C@@H]2CCNC2)cnc1Cl`: 140 nM.
The compound `N#Cc1ccc(-c2cncc(O[C@@H]3CCNC3)c2)cc1` had an IC50 of 544 nM.
Consider `Cc1cc(O[C@@H]2CCNC2)cnc1Cl`, for which the IC50 stood at 64 nM.
On to `CC(C)N1CCC(Oc2cccnc2)C1` (stereo not given), for which the IC50 was > 10000 nM.
`C=Cc1cncc(O[C@@H]2CCNC2)c1` gave an IC50 of 883 nM.
With `CCN1CCC(Oc2cccnc2)C1` (stereo not given), the IC50 is > 10000 nM.
The same measure for `c1ccc(-c2cncc(O[C@@H]3CCNC3)c2)cc1`: 1820 nM.
Turning to `c1cncc(OC2CNC2)c1`, the IC50 was > 10000 nM.
In the case of `c1cc(-c2cncc(O[C@@H]3CCNC3)c2)ccn1`, the half-maximal inhibitory concentration (IC50) came out at 571 nM.
`Clc1ncc(O[C@@H]2CCNC2)cc1-c1ccccc1` came in with a half-inhibitory concentration (IC50) of 75 nM.
The same measure for `C#Cc1cc(O[C@@H]2CCNC2)cnc1Cl`: 46 nM; for `Clc1ncc(O[C@@H]2CCNC2)cc1-c1ccncc1`: 65 nM.
